Series [1] deals with HeLa. In words: Cell cycle arrest in human HeLa cells assessed as accumulation at G2/M phase at 5 to 20 uM after 48 hrs by propidium iodide staining based flow cytometry. The series is classed as functional. In general terms: In flow cytometry, cells or beads pass a laser one at a time.
Series [2] addresses Serine/threonine-protein kinase PLK2 (Homo sapiens, UniProt Q9NYY3). In words: Inhibition of FITC-GPMQTSpTPKNG-OH binding to Plk2 PBD (unknown origin) after 30 mins by fluorescence polarization assay. In general terms: Fluorescence polarisation rises when a labelled molecule tumbles more slowly, as on binding a larger partner.
In series [3] the target is Serine/threonine-protein kinase PLK3 (Homo sapiens, UniProt Q9H4B4). In words: Inhibition of FITC-GPLATSpTPKNG-OH binding to Plk3 PBD (unknown origin) after 30 mins by fluorescence polarization assay.
Chain of Serine/threonine-protein kinase PLK3 (Q9H4B4 whole entry): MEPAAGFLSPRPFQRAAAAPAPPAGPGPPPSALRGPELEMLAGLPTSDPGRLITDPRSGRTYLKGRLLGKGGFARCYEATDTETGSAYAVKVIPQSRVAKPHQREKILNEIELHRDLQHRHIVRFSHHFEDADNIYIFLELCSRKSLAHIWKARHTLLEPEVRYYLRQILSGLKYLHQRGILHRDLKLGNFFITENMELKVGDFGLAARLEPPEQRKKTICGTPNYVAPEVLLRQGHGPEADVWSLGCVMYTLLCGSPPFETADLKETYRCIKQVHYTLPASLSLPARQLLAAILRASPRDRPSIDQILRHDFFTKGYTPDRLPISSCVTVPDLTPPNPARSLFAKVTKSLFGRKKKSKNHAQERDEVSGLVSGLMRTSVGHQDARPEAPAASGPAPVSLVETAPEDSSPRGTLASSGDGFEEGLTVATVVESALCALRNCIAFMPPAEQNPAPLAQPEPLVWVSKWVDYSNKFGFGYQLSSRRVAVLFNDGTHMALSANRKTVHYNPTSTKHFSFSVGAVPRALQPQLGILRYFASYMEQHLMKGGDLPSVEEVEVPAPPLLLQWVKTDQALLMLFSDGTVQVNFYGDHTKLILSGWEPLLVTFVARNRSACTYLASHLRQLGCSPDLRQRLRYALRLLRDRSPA
For series [4], the system named is HeLa. In words: Induction of apoptosis in human HeLa cells assessed as viable cells at 5 uM after 48 hrs by Annexin V-FITC/propidium iodide staining based flow cytometry (reference value: 39.5%). The series is classed as functional. Particulars: read-out: Activity.
Series [5] deals with HeLa. The series can be described thus: Induction of apoptosis in human HeLa cells assessed as early apoptotic cells at 5 uM after 48 hrs by Annexin V-FITC/propidium iodide staining based flow cytometry (reference value: 0%). The format is functional.
In series [6] the test system is HeLa. In words: Induction of apoptosis in human HeLa cells assessed as late apoptotic cells at 5 uM after 48 hrs by Annexin V-FITC/propidium iodide staining based flow cytometry (reference value: 0%). The format is functional.
In series [7] the test system is HeLa. The series can be described thus: Induction of apoptosis in human HeLa cells assessed as necrotic cells at 5 uM after 48 hrs by Annexin V-FITC/propidium iodide staining based flow cytometry (reference value: 0.5%). The series is classed as functional.
Series [8] has as its system HeLa. The series can be described thus: Induction of apoptosis in human HeLa cells assessed as viable cells at 10 uM after 48 hrs by Annexin V-FITC/propidium iodide staining based flow cytometry (reference value: 39.5%). The conditions noted are these: read-out: Activity. The series is classed as functional.
Series [9] concerns HeLa. The series can be described thus: Induction of apoptosis in human HeLa cells assessed as early apoptotic cells at 10 uM after 48 hrs by Annexin V-FITC/propidium iodide staining based flow cytometry (reference value: 0%). The format is functional.
Series [10] relates to HeLa. The series can be described thus: Induction of apoptosis in human HeLa cells assessed as late apoptotic cells at 10 uM after 48 hrs by Annexin V-FITC/propidium iodide staining based flow cytometry (reference value: 0%). The format is functional.
Series [11] relates to HeLa. In words: Induction of apoptosis in human HeLa cells assessed as necrotic cells at 10 uM after 48 hrs by Annexin V-FITC/propidium iodide staining based flow cytometry (reference value: 0.5%). The format is functional.
The test system of series [12] is HeLa. The series can be described thus: Induction of apoptosis in human HeLa cells assessed as viable cells at 20 uM after 48 hrs by Annexin V-FITC/propidium iodide staining based flow cytometry (reference value: 39.5%). The series is classed as functional. The conditions noted are these: read-out: Activity.
For series [13], the system named is HeLa. In words: Induction of apoptosis in human HeLa cells assessed as early apoptotic cells at 20 uM after 48 hrs by Annexin V-FITC/propidium iodide staining based flow cytometry (reference value: 0%). The format is functional.
In series [14] the test system is HeLa. In words: Induction of apoptosis in human HeLa cells assessed as late apoptotic cells at 20 uM after 48 hrs by Annexin V-FITC/propidium iodide staining based flow cytometry (reference value: 0%). The series is classed as functional.
Series [15] has as its system HeLa. In words: Induction of apoptosis in human HeLa cells assessed as necrotic cells at 20 uM after 48 hrs by Annexin V-FITC/propidium iodide staining based flow cytometry (reference value: 0.5%). The series is classed as functional.
Series [16] is described as follows: Drug uptake in nucleus of human HeLa cells after 3 hrs by DAPI staining based confocal laser scanning microscopy. The series is classed as ADME, subcellular.
For series [17], the system named is HeLa. In words: Cell cycle arrest in human HeLa cells assessed as decrease in G0/G1 phase at 5 to 20 uM after 48 hrs by propidium iodide staining based flow cytometry. The format is functional.
Series [18] has as its system HeLa. The series can be described thus: Cell cycle arrest in human HeLa cells assessed as decrease in S phase at 5 to 20 uM after 48 hrs by propidium iodide staining based flow cytometry. The format is functional.
For series [19], the system named is HeLa. The series can be described thus: Cell cycle arrest in human HeLa cells assessed as decrease in G2/M phase at 20 uM after 48 hrs by propidium iodide staining based flow cytometry relative to control. Set-up: scale not given: the % may be the effect or the level left. The format is functional.
Series [20] has as its system HeLa. The series can be described thus: Cell cycle arrest in human HeLa cells assessed as decrease in G2/M phase at 20 uM after 24 hrs by propidium iodide staining based flow cytometry relative to control. The format is functional. Further details: scale not given: the % may be the effect or the level left.
In series [21] the test system is HeLa. The series can be described thus: Cell cycle arrest in human HeLa cells assessed as decrease in G2/M phase at 20 uM after 12 hrs by propidium iodide staining based flow cytometry relative to control. The format is functional.
The test system of series [22] is HeLa. The series can be described thus: Decrease in cyclin B1 expression level in human HeLa cells after 48 hrs by Western blot analysis. The series is classed as functional, cell-based. On the technique in general: A western blot detects proteins with antibodies after separation by electrophoresis.
Series [23] relates to HeLa. The series can be described thus: Decrease in CDK1 expression level in human HeLa cells after 48 hrs by Western blot analysis. The format is functional, cell-based.
For series [24], the system named is HeLa. In words: Induction of apoptosis in human HeLa cells after 48 hrs by Annexin V-FITC/propidium iodide staining based flow cytometry. The series is classed as functional, cell-based.
In series [25] the test system is HeLa. In words: Induction of morphological changes in human HeLa cells assessed as chromatin condensation at 5 to 20 uM after 48 hrs by Hoechst 33258 staining based fluorescence microscopy. The series is classed as functional, cell-based.
The subject of series [26] is HeLa. In words: Induction of morphological changes in human HeLa cells assessed as nuclei fragmentation at 5 to 20 uM after 48 hrs by Hoechst 33258 staining based fluorescence microscopy. The series is classed as functional, cell-based.
Series [27] relates to HeLa. In words: Induction of morphological changes in human HeLa cells at 5 to 20 uM after 48 hrs by Hoechst 33258 staining based fluorescence microscopy. The format is functional, cell-based.
For series [28], the system named is HeLa. The series can be described thus: Induction of apoptosis in human HeLa cells assessed as PARP cleavage after 48 hrs by Western blot analysis. The series is classed as functional, cell-based.
Series [29] deals with HeLa. In words: Induction of apoptosis in human HeLa cells assessed as caspase 3 cleavage after 48 hrs by Western blot analysis. The series is classed as functional, cell-based.

Calls of active or inactive are those of the source. The rule behind the calls is not given here. Square brackets hold non-standard residues; d marks the D form. Peptide text beside a SMILES is read from it. Phe(3,4-Cl2) = N[C@@H](Cc1ccc(Cl)c(Cl)c1)C(=O)O; Phe(4-Cl) = N[C@@H](Cc1ccc(Cl)cc1)C(=O)O; pT = C[C@@H](OP(=O)(O)O)[C@H](N)C(=O)O

Chain of Serine/threonine-protein kinase PLK2 (Q9NYY3 whole entry): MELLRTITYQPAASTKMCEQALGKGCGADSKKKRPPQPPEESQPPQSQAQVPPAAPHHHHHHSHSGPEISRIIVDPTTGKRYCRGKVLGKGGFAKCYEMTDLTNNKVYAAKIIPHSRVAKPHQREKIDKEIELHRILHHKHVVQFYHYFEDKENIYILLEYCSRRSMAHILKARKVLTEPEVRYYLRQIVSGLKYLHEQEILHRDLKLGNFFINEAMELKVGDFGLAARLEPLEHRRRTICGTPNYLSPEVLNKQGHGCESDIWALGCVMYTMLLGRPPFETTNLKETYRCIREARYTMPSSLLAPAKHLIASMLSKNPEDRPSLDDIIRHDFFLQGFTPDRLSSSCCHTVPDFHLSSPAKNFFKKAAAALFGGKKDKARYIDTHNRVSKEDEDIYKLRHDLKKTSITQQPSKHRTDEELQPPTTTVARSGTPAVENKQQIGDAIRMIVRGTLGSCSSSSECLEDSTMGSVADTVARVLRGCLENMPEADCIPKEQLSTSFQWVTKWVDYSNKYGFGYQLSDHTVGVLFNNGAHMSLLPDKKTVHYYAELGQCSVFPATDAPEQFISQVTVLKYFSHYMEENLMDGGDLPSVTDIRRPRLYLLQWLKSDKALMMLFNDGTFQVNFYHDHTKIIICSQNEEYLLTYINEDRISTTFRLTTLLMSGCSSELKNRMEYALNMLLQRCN

On to `CC[C@H](C)[C@H](NC(=O)[C@H](C)NC(=O)[C@@H](NC(=O)[C@H](CO)NC(=O)[C@H](Cc1cnc[nH]1)NC(=O)[C@H](CC(C)C)NC(=O)[C@@H]1CCCN1C(=O)[C@@H]1CCCN1C(=O)[C@H](CC(=O)O)NC(=O)[C@H](Cc1ccccc1)NC(C)=O)[C@@H](C)OP(=O)(O)O)C(=O)N[C@@H](Cc1ccc(O)cc1)C(=O)N[C@@H](C)C(=O)N[C@@H](CC(N)=O)C(N)=O` (Ac-FDPPLHS[pT]AIYAN-NH2), for which the outcome in [1] was inactive. The IC50 in series [2] (read-out: IC50) is 13.4 µM; in [3], “Not Active”. The viability at 5 µM in [4] turned out to be 100%. Also, the Activity in [5], in series [6], in series [7], in series [9], in series [10] and in [11] was 0% in each case. Further, the Activity in [13], in [14] and in series [15] was 0% in each case. The viability at 10 µM in [8] was 100%. The viability at 20 µM in series [12] was determined as 100%.

Regarding `CC[C@H](C)[C@H](NC(=O)[C@H](C)NC(=O)[C@@H](NC(=O)[C@H](CO)NC(=O)[C@H](Cc1cnc[nH]1)NC(=O)[C@H](CC(C)C)NC(=O)[C@@H]1CCCN1C(=O)[C@@H]1CCCN1C(=O)[C@H](CC(=O)O)NC(=O)[C@H](Cc1ccc(OC)cc1)NC(=O)[C@@H](NC(=O)[C@H](CCC(N)=O)NC(C)=O)[C@@H](C)O)[C@@H](C)OP(=O)(O)O)C(=O)N[C@@H](Cc1ccc(O)cc1)C(=O)N[C@@H](C)C(=O)N[C@@H](CC(N)=O)C(N)=O` (Ac-QTY(Me)DPPLHS[pT]AIYAN-NH2), the 50% inhibitory concentration (IC50) result in series [2] and in series [3] was “Not Active” each time.

`CC[C@H](C)[C@H](NC(=O)[C@H](C)NC(=O)[C@@H](NC(=O)[C@H](CO)NC(=O)[C@H](Cc1cnc[nH]1)NC(=O)[C@H](CC(C)C)NC(=O)[C@@H]1CCCN1C(=O)[C@@H]1CCCN1C(=O)[C@H](CC(=O)O)NC(=O)[C@H](Cc1ccc(Cl)c(Cl)c1)NC(=O)[C@@H](NC(=O)[C@H](CCC(N)=O)NC(C)=O)[C@@H](C)O)[C@@H](C)OP(=O)(O)O)C(=O)N[C@@H](Cc1ccc(O)cc1)C(=O)N[C@@H](C)C(=O)N[C@@H](CC(N)=O)C(N)=O` (Ac-QT[Phe(3,4-Cl2)]DPPLHS[pT]AIYAN-NH2): the Activity in [1] was 24.37 - 67.66%; in series [19], 71%; in series [20] it was 40%; in series [22], “Dose-dependent effect”; in series [23], “Dose-dependent effect”; in series [5], 14.6%. The Activity in series [6] was 1.6%; in [7], 0.2%; in series [9] it was 25.2%; in series [10], 5.9%; in series [11] it was 0.2%; in series [13] it was 46.9%. Besides, the Activity was 2.1% in series [14], 0.1% in series [15] and “Dose-dependent effect” in series [24]. In series [2], the IC50 entry is on record as “Not Active”. In addition, in series [16], the Drug uptake result was “Active”. Besides, the outcome in series [17], in series [18], in series [25], in series [26], in [27] and in series [28] was Active. In addition, the outcome in series [29] was Active. Besides, the result in series [21] was inactive. In [4], the viability at 5 µM is 83.7%. Besides, the viability at 10 µM in series [8] came to 68.6%. Also, in series [12], the viability at 20 µM was 50.8%.

On to `CC[C@H](C)[C@H](NC(=O)[C@H](C)NC(=O)[C@@H](NC(=O)[C@H](CO)NC(=O)[C@H](Cc1cnc[nH]1)NC(=O)[C@H](CC(C)C)NC(=O)[C@@H]1CCCN1C(=O)[C@@H]1CCCN1C(=O)[C@H](CC(=O)O)NC(=O)[C@H](Cc1ccc(Cl)cc1)NC(=O)[C@@H](NC(=O)[C@H](CCC(N)=O)NC(C)=O)[C@@H](C)O)[C@@H](C)OP(=O)(O)O)C(=O)N[C@@H](Cc1ccc(O)cc1)C(=O)N[C@@H](C)C(=O)N[C@@H](CC(N)=O)C(N)=O` (Ac-QT[Phe(4-Cl)]DPPLHS[pT]AIYAN-NH2), for which the IC50 result in series [2] and in series [3] was “Not Active” in each case.

Broadly, the IC50 is the concentration at which inhibition is half-maximal.

(Values after ChEMBL document CHEMBL4118220, “Design, synthesis and biological evaluation of phosphopeptides as Polo-like kinase 1 Polo-box domain inhibitors” (Bioorg Med Chem, 2018).)
